Measured values: ChEMBL document CHEMBL1126513, “Quinuclidine-based NK-1 antagonists I: 3-benzyloxy-1-azabicyclo[2.2.2]octanes” (Bioorg Med Chem Lett, 1993)

Each molecule was assayed against Substance-P receptor (Homo sapiens, UniProt P25103) (assay: Displacement of [125]Substance P Binding from human Neurokinin NK1 receptor in CHO Cells).
Chain of Substance-P receptor (P25103 whole entry): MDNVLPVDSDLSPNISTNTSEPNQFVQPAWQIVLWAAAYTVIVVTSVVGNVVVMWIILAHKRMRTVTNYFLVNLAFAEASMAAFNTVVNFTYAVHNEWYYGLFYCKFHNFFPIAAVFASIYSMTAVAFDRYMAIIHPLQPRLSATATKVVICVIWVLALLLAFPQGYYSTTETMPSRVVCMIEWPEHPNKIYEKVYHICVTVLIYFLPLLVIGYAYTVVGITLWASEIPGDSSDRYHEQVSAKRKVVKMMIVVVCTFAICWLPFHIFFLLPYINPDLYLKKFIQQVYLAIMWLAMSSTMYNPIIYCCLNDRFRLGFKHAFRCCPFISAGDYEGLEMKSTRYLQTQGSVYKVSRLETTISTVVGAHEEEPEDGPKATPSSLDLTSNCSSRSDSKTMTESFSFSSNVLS
S=C(Nc1ccccc1)N[C@H]1C2CCN(CC2)[C@H]1C(c1ccccc1)c1ccccc1 showed an IC50 of over 1 µM. Molecule Cc1ccc(C)c(CO[C@H]2C3CCN(CC3)[C@H]2C(c2ccccc2)c2ccccc2)c1 has an IC50 of 0.048 µM. For Cc1cc(C)cc(CO[C@H]2C3CCN(CC3)[C@H]2C(c2ccccc2)c2ccccc2)c1 [L-706125], the IC50 was 0.001 µM. Molecule c1ccc(CCN[C@H]2C3CCN(CC3)[C@H]2C(c2ccccc2)c2ccccc2)cc1 has an IC50 of 0.7 µM. O=C(N[C@H]1C2CCN(CC2)[C@H]1C(c1ccccc1)c1ccccc1)c1ccccc1 gave an IC50 of over 1 µM. c1ccc(CO[C@H]2C3CCN(CC3)[C@H]2C(c2ccccc2)c2ccccc2)cc1 showed an IC50 of 110 µM. Cc1cccc(CO[C@H]2C3CCN(CC3)[C@H]2C(c2ccccc2)c2ccccc2)c1 was tested, and the IC50 was 0.021 µM. Work on Cc1ccc(CO[C@H]2C3CCN(CC3)[C@H]2C(c2ccccc2)c2ccccc2)cc1C yielded an IC50 of 0.197 µM. O=C(Nc1ccccc1)N[C@H]1C2CCN(CC2)[C@H]1C(c1ccccc1)c1ccccc1 gave an IC50 of over 1 µM. Work on O=S(=O)(N[C@H]1C2CCN(CC2)[C@H]1C(c1ccccc1)c1ccccc1)c1ccccc1 yielded an IC50 of over 1 µM. c1ccc(CN[C@H]2C3CCN(CC3)[C@H]2C(c2ccccc2)c2ccccc2)cc1 was tested, and the IC50 was 0.15 µM. Molecule O=C(N[C@H]1C2CCN(CC2)[C@H]1C(c1ccccc1)c1ccccc1)Oc1ccccc1 has an IC50 of over 1 µM. O=C(Nc1ccccc1)O[C@H]1C2CCN(CC2)[C@H]1C(c1ccccc1)c1ccccc1 showed an IC50 of over 1 µM. Cc1ccc(CO[C@H]2C3CCN(CC3)[C@H]2C(c2ccccc2)c2ccccc2)cc1 was tested, and the IC50 was 0.29 µM. Cc1ccccc1CO[C@H]1C2CCN(CC2)[C@H]1C(c1ccccc1)c1ccccc1 was tested, and the IC50 was 0.183 µM.
